Each structure is given as a SMILES string. Several values for one entry are separate records, joined by “and”; a condition that tells them apart may be missing. Equal values may be shown once. Read-outs that look alike come from different tables or passages of the source.

This data set is described as follows: PK/TK single dose studies. Format: in vivo. Particulars: rhesus monkey, plasma. The protocol:
Pharmacokinetic studies in rats and monkeys were used to estimate the plasma concentrations associated with doses at which AZD0328 improved cognitive performance in these species. For example, in rhesus monkeys, two studies were conducted to determine the pharmacokinetic profile of AZD0328 after administration of 0.048 and 1.7 mg per kg AZD0328. […] We thus estimated the peak plasma concentrations in monkeys that received AZD0328 at 0.00048-0.016 mg per kg to be 0.6-18 nM. Similar studies and calculations in rats, when extended to mice, led us to estimate plasma concentrations at 0.001-0.1 mg per kg body weight to be 0.29-100 nM in these species.
This section provides a summary of the pharmacokinetic and metabolism properties of AZD0328 derived from in vivo studies. […] The derived PK/TK parameters from these studies are presented in Table 4 for single dose studies (DMR4, 0619LR, 20030191PCR, DM016, DMB10, DMW12, 50190, 0190DD and 03.330/1), and are presented in Table 5 multiple dose PK/TK studies (DMR4, 0612AR, DMB15, 50190, 0190DD and 0295AD).

On to `c1cnc2c(c1)C[C@@]1(CN3CCC1CC3)O2` [AZD0328, (R)-Spiro[1-azabicyclo[2.2.2]octane-3,2′(3′H)-furo[2,3-b]pyridine]], for which the AUC is 14.9 ng·h/mL and 0.0684 µM·h (male, im, 0.048 mg/kg, read-out: AUC (converted)); 0.028 µM·h (intramuscular, 0.016 mg/kg, rhesus monkeys, read-out: AUC at NOAEL for behavioral side effects).

Source of the values: patent US20100168146A1, “Composition Comprising (R)-Spiro[L-Azabicyclo[2.2.2]Octane-3,2'(3'H)-Furo[2,3-B]Pyridine (AZD0328) and its Use in the Treatment of Alzheimer's Disease, ADHD or Cognitive Dysfunction” (priority 2008, published 2010).
